Key:
PDE4Bcat = biological target: T1, PDE4Bcat (Homo sapiens, UniProt Q07343); test: Phosphodiesterase inhibitory activity, PDE4 ([3H]cAMP, recombinant enzyme); type: biochemical; settings: 30° C., 20 minutes, read-out: IC50(μmol/L) PDE4
T1 construct: made in house; host or cells: Sf9 insect cells (baculovirus, Bac-to-Bac / Gateway)

[1] = biological target: T2, PDE3A catalytic domain (PDE3Acat) (Homo sapiens, UniProt Q14432); test: Phosphodiesterase inhibitory activity, PDE3 ([3H]cAMP, recombinant enzyme); type: biochemical; settings: 30° C., 20 minutes, read-out: IC50(μmol/L) PDE3
T2 construct: made in house; host or cells: Sf9 insect cells (baculovirus, Bac-to-Bac / Gateway)
T2 sequence (Q14432 674-1093 limits assumed): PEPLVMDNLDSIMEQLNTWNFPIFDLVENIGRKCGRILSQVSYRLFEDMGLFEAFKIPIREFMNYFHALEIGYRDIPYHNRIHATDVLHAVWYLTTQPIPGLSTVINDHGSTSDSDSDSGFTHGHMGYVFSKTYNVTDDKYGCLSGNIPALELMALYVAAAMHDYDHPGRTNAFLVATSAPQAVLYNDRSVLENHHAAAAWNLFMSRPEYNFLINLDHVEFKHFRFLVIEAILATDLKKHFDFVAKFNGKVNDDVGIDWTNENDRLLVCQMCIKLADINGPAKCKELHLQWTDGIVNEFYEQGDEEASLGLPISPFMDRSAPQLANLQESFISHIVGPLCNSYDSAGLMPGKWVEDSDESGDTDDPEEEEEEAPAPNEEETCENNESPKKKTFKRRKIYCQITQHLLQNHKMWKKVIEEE

T1 sequence (Q07343 330-659 limits assumed): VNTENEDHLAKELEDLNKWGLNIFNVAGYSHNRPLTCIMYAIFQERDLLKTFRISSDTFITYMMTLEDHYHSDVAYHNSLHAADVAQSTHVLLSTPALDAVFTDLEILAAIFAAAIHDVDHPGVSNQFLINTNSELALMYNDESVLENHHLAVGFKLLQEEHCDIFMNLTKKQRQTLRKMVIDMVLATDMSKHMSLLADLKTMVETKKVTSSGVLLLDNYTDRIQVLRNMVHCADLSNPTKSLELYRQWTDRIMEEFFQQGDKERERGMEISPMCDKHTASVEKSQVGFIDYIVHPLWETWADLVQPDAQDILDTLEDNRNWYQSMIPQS

SMILES | IC50 (PDE4Bcat) | IC50 [1]
CCc1nc2c(OC)ccc(-c3ccc(=O)n(CCCCOc4ccc(C5=NNC(=O)C5(C)C)c(F)c4F)n3)c2o1 [Example 335, 6-(2-Ethyl-4-methoxybenzooxazol-7-yl)-2-[4-[2,3-difluoro-4-(4,4-dimethyl-5-oxo-4,5-dihydro-1H-pyrazol-3-yl)phenoxy]butyl]-2H-pyridazin-3-one] | 0.1 to 1 µmol/L | 0.1 to 1 µmol/L
COc1ccc(-c2ccc(=O)n(CCCCOc3ccc(C4=NNC(=O)CC4C)c(F)c3F)n2)c2cc(C(F)(F)F)oc12 (stereo not shown) [Example 276, 2-[4-[2,3-Difluoro-4-(4-methyl-6-oxo-1,4,5,6-tetrahydropyridazin-3-yl)phenoxy]butyl]-6-(7-methoxy-2-trifluoromethylbenzofuran-4-yl)-2H-pyridazin-3-one] | 0.1 to 1 µmol/L | < 0.1 µmol/L
CCc1nc2c(OC)ccc(-c3ccc(=O)n(CCCCOc4ccc(C5=NNC(=O)CC5)c(F)c4F)n3)c2o1 [Example 333, 6-(2-Ethyl-4-methoxybenzooxazol-7-yl)-2-[4-[2,3-difluoro-4-(6-oxo-1,4,5,6-tetrahydropyridazin-3-yl)phenoxy]butyl]-2H-pyridazin-3-one] | 0.1 to 1 µmol/L | < 0.1 µmol/L
COc1ccc(C2=NN(CCCCOc3ccc(C4=NNC(=O)CC4C)cc3)C(=O)CC2C)c2sc(C(F)(F)F)nc12 (stereo not shown) [Example 313, 6-(4-Methoxy-2-trifluoromethylbenzothiazol-7-yl)-5-methyl-2-[4-[4-(4-methyl-6-oxo-1,4,5,6-tetrahydropyridazin-3-yl)phenoxy]butyl]-4,5-dihydro-2H-pyridazin-3-one] | < 0.1 µmol/L | 0.1 to 1 µmol/L
COc1ccc(-c2ccc(=O)n(CCCCOc3ccc(C4=NNC(=O)C4(C)C)c(F)c3F)n2)c2nc(C(F)(F)F)nn12 [Example 306, 2-[4-[2,3-Difluoro-4-(4,4-dimethyl-5-oxo-4,5-dihydro-1H-pyrazol-3-yl)phenoxy]butyl]-6-(5-methoxy-2-trifluoromethyl-[1,2,4]triazolo[1,5-a]pyridin-8-yl)-2H-pyridazin-3-one] | 1 to 10 µmol/L | 1 to 10 µmol/L
COc1ccc(-c2ccc(=O)n(CCCCOc3ccc(C4=NNC(=O)C4(C)C)c(F)c3F)n2)n2cc(C(F)(F)F)nc12 [Example 338, 2-[4-[2,3-Difluoro-4-(4,4-dimethyl-5-oxo-4,5-dihydro-1H-pyrazol-3-yl)phenoxy]butyl]-6-(8-methoxy-2-trifluoromethylimidazo[1,2-a]pyridin-5-yl)-2H-pyridazin-3-one] | 0.1 to 1 µmol/L | 0.1 to 1 µmol/L
COc1ccc(-c2ccc(=O)n(CCCCOc3ccc(C4=NNC(=O)CC4)c(F)c3F)n2)c2cc(C(F)(F)F)sc12 [Example 331, 2-[4-[2,3-Difluoro-4-(6-oxo-1,4,5,6-tetrahydropyridazin-3-yl)phenoxy]butyl]-6-(7-methoxy-2-trifluoromethylbenzo[b]thiophen-4-yl)-2H-pyridazin-3-one] | 1 to 10 µmol/L | < 0.1 µmol/L
CCc1ccc2c(-c3ccc(=O)n(CCCOc4ccc(C5=NNC(=O)CC5)c(F)c4F)n3)ccc(OC)c2n1 [Example 326, 6-(2-Ethyl-8-methoxyquinolin-5-yl)-2-[3-[2,3-difluoro-4-(6-oxo-1,4,5,6-tetrahydropyridazin-3-yl)phenoxy]propyl]-2H-pyridazin-3-one] | 1 to 10 µmol/L | 1 to 10 µmol/L
COc1ccc(C2=NN(CCCCOc3ccc(C4=NNC(=O)CC4C)cc3)C(=O)CC2C)c2cc(C(F)(F)F)sc12 (stereo not shown) [Example 311] | 1 to 10 µmol/L | < 0.1 µmol/L
CCc1nc2c(OC)ccc(-c3ccc(=O)n(CCCCOc4ccc(C5=NNC(=O)CC5C)c(F)c4F)n3)c2o1 (stereo not shown) [Example 334, 6-(2-Ethyl-4-methoxybenzooxazol-7-yl)-2-[4-[2,3-difluoro-4-(4-methyl-6-oxo-1,4,5,6-tetrahydropyridazin-3-yl)phenoxy]butyl]-2H-pyridazin-3-one] | 0.1 to 1 µmol/L | < 0.1 µmol/L
COc1ccc(-c2ccc(=O)n(CCCCOc3ccc(C4=NNC(=O)C4(C)C)c(F)c3F)n2)c2cc(C(F)(F)F)sc12 [Example 332, 2-[4-[2,3-Difluoro-4-(4,4-dimethyl-5-oxo-4,5-dihydro-1H-pyrazol-3-yl)phenoxy]butyl]-6-(7-methoxy-2-trifluoromethylbenzo[b]thiophen-4-yl)-2H-pyridazin-3-one] | 1 to 10 µmol/L | 0.1 to 1 µmol/L
COc1ccc(C2=NN(CCCCOc3ccc(C4=NNC(=O)CC4C)cc3)C(=O)CC2C)c2cc(C(F)(F)F)oc12 (stereo not shown) [Example 310] | < 0.1 µmol/L | 0.1 to 1 µmol/L
CCc1ccc2c(-c3ccc(=O)n(CCCCOc4ccc(C5=NNC(=O)CC5)cc4F)n3)ccc(OC)c2n1 [Example 284, 6-(2-Ethyl-8-methoxyquinolin-5-yl)-2-[4-[2-fluoro-4-(6-oxo-1,4,5,6-tetrahydropyridazin-3-yl)phenoxy]butyl]-2H-pyridazin-3-one] | 0.1 to 1 µmol/L | < 0.1 µmol/L
COc1ccc(-c2ccc(=O)n(CCCCOc3ccc(C4=NNC(=O)C4(C)C)c(F)c3F)n2)c2cc(C(F)(F)F)oc12 [Example 275, 2-[4-[2,3-Difluoro-4-(4,4-dimethyl-5-oxo-4,5-dihydro-1H-pyrazol-3-yl)phenoxy]butyl]-6-(7-methoxy-2-trifluoromethylbenzofuran-4-yl)-2H-pyridazin-3-one] | 0.1 to 1 µmol/L | < 0.1 µmol/L
COc1ccc(-c2ccc(=O)n(CCCCOc3ccc(C4=NNC(=O)CC4)c(F)c3F)n2)n2cc(C(F)(F)F)nc12 [Example 337, 2-[4-[2,3-Difluoro-4-(6-oxo-1,4,5,6-tetrahydropyridazin-3-yl)phenoxy]butyl]-6-(8-methoxy-2-trifluoromethylimidazo[1,2-a]pyridin-5-yl)-2H-pyridazin-3-one] | 0.1 to 1 µmol/L | 0.1 to 1 µmol/L
CCc1ccc2c(-c3ccc(=O)n(CCCCOc4ccc(C5=NNC(=O)C5(C)C)cc4F)n3)ccc(OC)c2n1 [Example 285, 6-(2-Ethyl-8-methoxyquinolin-5-yl)-2-[4-[2-fluoro-4-(4,4-dimethyl-5-oxo-4,5-dihydro-1H-pyrazol-3-yl)phenoxy]butyl]-2H-pyridazin-3-one] | 1 to 10 µmol/L | 1 to 10 µmol/L
CCc1ccc2c(-c3ccc(=O)n(CCOc4ccc(C5=NNC(=O)CC5C)c(F)c4F)n3)ccc(OC)c2n1 (stereo not shown) [Example 324, 6-(2-Ethyl-8-methoxyquinolin-5-yl)-2-[2-[2,3-difluoro-4-(4-methyl-6-oxo-1,4,5,6-tetrahydropyridazin-3-yl)phenoxy]ethyl]-2H-pyridazin-3-one] | 0.1 to 1 µmol/L | < 0.1 µmol/L
CCc1ccc2c(-c3ccc(=O)n(CCCCOc4ccc(C5=NNC(=O)C5(C)C)cc4OC)n3)ccc(OC)c2n1 [Example 286, 6-(2-Ethyl-8-methoxyquinolin-5-yl)-2-[4-[2-methoxy-4-(4,4-dimethyl-5-oxo-4,5-dihydro-1H-pyrazol-3-yl)phenoxy]butyl]-2H-pyridazin-3-one] | 1 to 10 µmol/L | ≥ 10 µmol/L

Other lines, results leading:

IC50 (PDE4Bcat) | IC50 [1] | SMILES
0.1 to 1 µmol/L | < 0.1 µmol/L | CCc1ccc2c(-c3ccc(=O)n(CCCCOc4ccc(C5=NNC(=O)CC5C)cc4)n3)ccc(OC)c2n1 (stereo not shown) [Example 280, 6-(2-ethyl-8-Methoxyquinolin-5-yl)-2-[4-[4-(4-methyl-6-oxo-1,4,5,6-tetrahydropyridazin-3-yl)phenoxy]butyl]-2H-pyridazin-3-one]
0.1 to 1 µmol/L | 0.1 to 1 µmol/L | CCc1ccc2c(-c3ccc(=O)n(CCCOc4ccc(C5=NNC(=O)CC5C)c(F)c4F)n3)ccc(OC)c2n1 (stereo not shown) [Example 325, 6-(2-Ethyl-8-methoxyquinolin-5-yl)-2-[3-[2,3-difluoro-4-(4-methyl-6-oxo-1,4,5,6-tetrahydropyridazin-3-yl)phenoxy]propyl]-2H-pyridazin-3-one]
< 0.1 µmol/L | 1 to 10 µmol/L | CCc1ccc2c(C3=NN(CCCCOc4ccc(C5=NNC(=O)CC5C)cc4)C(=O)CC3C)ccc(OC)c2n1 (single isomer, unassigned) [Example 341, 6-(2-Ethyl-8-methoxyquinolin-5-yl)-5-methyl-2-[4-[4-(4-methyl-6-oxo-1,4,5,6-tetrahydropyridazin-3-yl)phenoxy]butyl]-4,5-dihydro-2H-pyridazin-3-one]
0.1 to 1 µmol/L | < 0.1 µmol/L | COc1ccc(-c2ccc(=O)n(CCCCOc3ccc(C4=NNC(=O)CC4C)cc3)n2)c2ccc(C(C)C)nc12 (stereo not shown) [Example 270, 6-(8-Methoxy-2-isopropylquinolin-5-yl)-2-[4-[4-(4-methyl-6-oxo-1,4,5,6-tetrahydropyridazin-3-yl)phenoxy]butyl]-2H-pyridazin-3-one]
0.1 to 1 µmol/L | ≥ 10 µmol/L | CCc1ccc2c(-c3ccc(=O)n(CCCCOc4ccc(C5=NNC(=O)C5(C)C)cc4)n3)ccc(OC)c2n1 [Example 282, 6-(2-Ethyl-8-methoxyquinolin-5-yl)-2-[4-[4-(4,4-dimethyl-5-oxo-4,5-dihydro-1H-pyrazol-3-yl)phenoxy]butyl]-2H-pyridazin-3-one]
0.1 to 1 µmol/L | 0.1 to 1 µmol/L | COc1ccc(-c2ccc(=O)n(CCCCOc3ccc(C4=NNC(=O)CC4C)cc3)n2)c2ccc(C(F)(F)F)nc12 (stereo not shown) [Example 321, 6-(8-Methoxy-2-trifluoromethylquinolin-5-yl)-2-[4-[4-(4-methyl-6-oxo-1,4,5,6-tetrahydropyridazin-3-yl)phenoxy]butyl]-2H-pyridazin-3-one]
0.1 to 1 µmol/L | 0.1 to 1 µmol/L | COc1ccc(-c2ccc(=O)n(CCCCOc3ccc(C4=NNC(=O)CC4C)cc3)n2)c2ccc(C)nc12 (stereo not shown) [Example 268, 6-(8-Methoxy-2-methylquinolin-5-yl)-2-[4-[4-(4-methyl-6-oxo-1,4,5,6-tetrahydropyridazin-3-yl)phenoxy]butyl]-2H-pyridazin-3-one]
< 0.1 µmol/L | < 0.1 µmol/L | COc1ccc(-c2ccc(=O)n(CCCCOc3ccc(C4=NNC(=O)CC4C)c(F)c3F)n2)c2sc(C(F)(F)F)nc12 (stereo not shown) [Example 307, 2-[4-[2,3-Difluoro-4-(4-methyl-6-oxo-1,4,5,6-tetrahydropyridazin-3-yl)phenoxy]butyl]-6-(4-methoxy-2-trifluoromethylbenzothiazol-7-yl)-2H-pyridazin-3-one]

From patent publication US20100160335A1, “PYRIDAZINONE DERIVATIVE AND PDE INHIBITOR CONTAINING THE SAME AS ACTIVE INGREDIENT” (KYORIN PHARMACEUTICAL CO., LTD., priority 2007, published 2010)
